Laboratory results as given in PubChem BioAssay (NCI).
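A five-concentration, 48-hour dose response in 96-well plates underlies each endpoint, interpolated linearly between surrounding concentrations. TGI: concentration producing complete growth inhibition.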

Key:
Assay in all cases: DTP human tumour cell line panel, 48 h
HCC-2998 colon = tested on: HCC-2998 colon
OVCAR-5 ovarian = tested on: OVCAR-5 ovarian
MDA-N = tested on: MDA-N
BT-549 breast = tested on: BT-549 breast
786-0 renal = tested on: 786-0 renal
COLO 205 colon = tested on: COLO 205 colon
CAKI-1 renal = tested on: CAKI-1 renal
SNB-19 CNS = tested on: SNB-19 CNS
SK-OV-3 ovarian = tested on: SK-OV-3 ovarian
SF-268 CNS = tested on: SF-268 CNS
MALME-3M melanoma = tested on: MALME-3M melanoma
KM12 colon = tested on: KM12 colon
LOX IMVI melanoma = tested on: LOX IMVI melanoma
DU-145 prostate = tested on: DU-145 prostate
EKVX NSCLC = tested on: EKVX NSCLC
MDA-MB-231 breast = tested on: MDA-MB-231 breast
NCI-H460 lung = tested on: NCI-H460 lung
UACC-62 melanoma = tested on: UACC-62 melanoma
HT29 colon = tested on: HT29 colon
NCI-H522 lung = tested on: NCI-H522 lung
HOP-62 NSCLC = tested on: HOP-62 NSCLC
M14 melanoma = tested on: M14 melanoma
MOLT-4 leukemia = tested on: MOLT-4 leukemia
OVCAR-4 ovarian = tested on: OVCAR-4 ovarian
NCI-H23 lung = tested on: NCI-H23 lung
SK-MEL-2 melanoma = tested on: SK-MEL-2 melanoma
PC-3 prostate = tested on: PC-3 prostate
NCI-H226 lung = tested on: NCI-H226 lung
HS 578T breast = tested on: HS 578T breast
HOP-92 NSCLC = tested on: HOP-92 NSCLC
SR leukemia = tested on: SR leukemia
UACC-257 melanoma = tested on: UACC-257 melanoma
IGROV1 ovarian = tested on: IGROV1 ovarian
CCRF-CEM leukemia = tested on: CCRF-CEM leukemia
U251 CNS = tested on: U251 CNS
ACHN renal = tested on: ACHN renal
HCT-116 colon = tested on: HCT-116 colon
TK-10 renal = tested on: TK-10 renal
A498 renal = tested on: A498 renal
SNB-75 CNS = tested on: SNB-75 CNS
UO-31 renal = tested on: UO-31 renal
T-47D breast = tested on: T-47D breast
SK-MEL-28 melanoma = tested on: SK-MEL-28 melanoma
RPMI-8226 leukemia = tested on: RPMI-8226 leukemia
SF-295 CNS = tested on: SF-295 CNS
SW-620 colon = tested on: SW-620 colon
SK-MEL-5 melanoma = tested on: SK-MEL-5 melanoma
SN12C renal = tested on: SN12C renal
A549 NSCLC = tested on: A549 NSCLC
MDA-MB-435 = tested on: MDA-MB-435
OVCAR-3 ovarian = tested on: OVCAR-3 ovarian
HCT-15 colon = tested on: HCT-15 colon
NCI/ADR-RES ovarian = tested on: NCI/ADR-RES ovarian
OVCAR-8 ovarian = tested on: OVCAR-8 ovarian
MCF7 breast = tested on: MCF7 breast
K-562 leukemia = tested on: K-562 leukemia
HL-60(TB) leukemia = tested on: HL-60(TB) leukemia
SF-539 CNS = tested on: SF-539 CNS

SMILES: O=C1CCCCC/C1=C\c1ccc(Cl)cc1
- TGI (HCC-2998 colon): 96.2 µM
- TGI (OVCAR-5 ovarian): > 100 µM
- TGI (MDA-N): > 100 µM
- TGI (BT-549 breast): > 100 µM
- TGI (786-0 renal): > 100 µM
- TGI (COLO 205 colon): 40.8 µM
- TGI (CAKI-1 renal): > 100 µM
- TGI (SNB-19 CNS): > 100 µM
- TGI (SK-OV-3 ovarian): > 100 µM
- TGI (SF-268 CNS): 55.5 µM
- TGI (MALME-3M melanoma): > 100 µM
- TGI (KM12 colon): 51.4 µM
- TGI (LOX IMVI melanoma): > 100 µM
- TGI (DU-145 prostate): > 100 µM
- TGI (EKVX NSCLC): > 100 µM
- TGI (MDA-MB-231 breast): > 100 µM
- TGI (NCI-H460 lung): > 100 µM
- TGI (UACC-62 melanoma): > 100 µM
- TGI (HT29 colon): 54.5 µM
- TGI (NCI-H522 lung): 73 µM
- TGI (HOP-62 NSCLC): > 100 µM
- TGI (M14 melanoma): > 100 µM
- TGI (MOLT-4 leukemia): 95.1 µM
- TGI (OVCAR-4 ovarian): 84.9 µM
- TGI (NCI-H23 lung): > 100 µM
- TGI (SK-MEL-2 melanoma): > 100 µM
- TGI (PC-3 prostate): 48.4 µM
- TGI (NCI-H226 lung): > 100 µM
- TGI (HS 578T breast): 57.8 µM
- TGI (HOP-92 NSCLC): 98 µM
- TGI (SR leukemia): > 100 µM
- TGI (UACC-257 melanoma): > 100 µM
- TGI (IGROV1 ovarian): > 100 µM
- TGI (CCRF-CEM leukemia): 50.3 µM
- TGI (U251 CNS): > 100 µM
- TGI (ACHN renal): > 100 µM
- TGI (HCT-116 colon): > 100 µM
- TGI (TK-10 renal): > 100 µM
- TGI (A498 renal): > 100 µM
- TGI (SNB-75 CNS): 81.3 µM
- TGI (UO-31 renal): > 100 µM
- TGI (T-47D breast): > 100 µM
- TGI (SK-MEL-28 melanoma): > 100 µM
- TGI (RPMI-8226 leukemia): 82.2 µM
- TGI (SF-295 CNS): 56.6 µM
- TGI (SW-620 colon): 61.2 µM
- TGI (SK-MEL-5 melanoma): 35.2 µM
- TGI (SN12C renal): > 100 µM
- TGI (A549 NSCLC): > 100 µM
- TGI (MDA-MB-435): 58.2 µM
- TGI (OVCAR-3 ovarian): > 100 µM
- TGI (HCT-15 colon): > 100 µM

SMILES: CC(=O)O[C@H]1CCn2c3c(c(C)c21)C(=O)C(N1CC1)=C(C)C3=O
- TGI (HCC-2998 colon): > 10 µM
- TGI (OVCAR-5 ovarian): > 10 µM
- TGI (MDA-N): > 10 µM
- TGI (BT-549 breast): > 10 µM
- TGI (786-0 renal): > 10 µM
- TGI (COLO 205 colon): > 10 µM
- TGI (CAKI-1 renal): > 10 µM
- TGI (SNB-19 CNS): > 10 µM
- TGI (SK-OV-3 ovarian): > 10 µM
- TGI (SF-268 CNS): > 10 µM
- TGI (NCI/ADR-RES ovarian): > 10 µM
- TGI (MALME-3M melanoma): > 10 µM
- TGI (KM12 colon): > 10 µM
- TGI (LOX IMVI melanoma): > 10 µM
- TGI (DU-145 prostate): > 10 µM
- TGI (EKVX NSCLC): > 10 µM
- TGI (MDA-MB-231 breast): > 10 µM
- TGI (NCI-H460 lung): > 10 µM
- TGI (UACC-62 melanoma): > 10 µM
- TGI (HT29 colon): > 10 µM
- TGI (NCI-H522 lung): > 10 µM
- TGI (HOP-62 NSCLC): > 10 µM
- TGI (OVCAR-8 ovarian): > 10 µM
- TGI (M14 melanoma): > 10 µM
- TGI (MCF7 breast): > 10 µM
- TGI (MOLT-4 leukemia): > 10 µM
- TGI (OVCAR-4 ovarian): > 10 µM
- TGI (NCI-H23 lung): > 10 µM
- TGI (SK-MEL-2 melanoma): > 10 µM
- TGI (PC-3 prostate): > 10 µM
- TGI (NCI-H226 lung): > 10 µM
- TGI (HS 578T breast): > 10 µM
- TGI (SR leukemia): > 10 µM
- TGI (UACC-257 melanoma): > 10 µM
- TGI (IGROV1 ovarian): > 10 µM
- TGI (CCRF-CEM leukemia): > 10 µM
- TGI (U251 CNS): > 10 µM
- TGI (ACHN renal): > 10 µM
- TGI (HCT-116 colon): > 10 µM
- TGI (K-562 leukemia): > 10 µM
- TGI (TK-10 renal): > 10 µM
- TGI (HL-60(TB) leukemia): > 10 µM
- TGI (SNB-75 CNS): > 10 µM
- TGI (SF-539 CNS): > 10 µM
- TGI (T-47D breast): > 10 µM
- TGI (RPMI-8226 leukemia): > 10 µM
- TGI (SF-295 CNS): > 10 µM
- TGI (SW-620 colon): > 10 µM
- TGI (SK-MEL-5 melanoma): 6.67 µM
- TGI (SN12C renal): > 10 µM
- TGI (A549 NSCLC): 7.83 µM
- TGI (MDA-MB-435): > 10 µM
- TGI (OVCAR-3 ovarian): > 10 µM
- TGI (HCT-15 colon): > 10 µM
